Test system: Human peripheral blood mononuclear cells
Test: Human Concanavalin-A Proliferation Assay (Con HU Assay)
Assay type: cell-based
Settings: concanavalin-A stimulated human PBMC; for inhibition at 10 µM / inhibition at 1 µM / inhibition at 100 µM: 72 h, read-out: % Inhibition of proliferation (at concentrations of 1,10, or 100 μm); for inhibition at 10 µM / % Inhibition of proliferation (at concentrations of 1,10, or 100 μm) / inhibition at 1 µM / inhibition at 100 µM: 3 days; for IC50: tritiated thymidine
Procedure: Human peripheral blood mononuclear cells were cultured in RPMI 1640 medium supplemented with 10 μg/ml gentamicin, 50 μM 2-mercaptoethanol, 1X MEM non-essential amino acids (Sigma Chemical Co., St. Louis, Mo.), 100 U/ml sodium penicillin G, 100 μg/ml streptomycin sulfate, 2 mM L-glutamine, 1 mM sodium pyruvate (Life Technologies, Grand Island, N.Y.) and 10% fetal bovine serum (Hyclone, Logan, Utah) at 37° C. with 5% CO2.
The procedure in Current Protocols in Immunology, Volume 1, Published by the Greene Publishing Associates and John Wiley & Sons, Inc, Edited by Richard Coico, 1994, hereby incorporated by reference, was followed. Briefly, 50 ml of blood from human volunteers was collected in heparinized syringes and mixed. Blood was diluted 1:1 in Dulbecco's phosphate buffered saline (D-PBS) (Life Technologies, Grand Island, N.Y.) and mixed. PBS-blood mixture was overlaid into 50 ml centrifuge tubes containing 15 ml Histopaque 1077 (Sigma Chemical Co., St. Louis, Mo.) and centrifuged at 500 X G for 30 minutes at room temperature. Cells at the interface from each Histopaque tube were removed and mixed with 5 ml of D-PBS. Each cell suspension was diluted to 50 ml with D-PBS, mixed and centrifuged at 400 X G for 15 minutes at room temperature. After most of the supernatant was removed, cells were resuspended to 40 ml with D-PBS per tube (2 tubes per donor). Cells were centrifuged at 400 X G for 10 minutes at room temperature. Pellets were resuspended in 10 ml of supplemented RPMI 1640 and cell number determined with a Coulter counter. Cells were diluted to a concentration of 0.5×10^6 cells per mL.
The procedure in Current Protocols in Immunology, Volume 1, Published by the Greene Publishing Associates and John Wiley & Sons, Inc, Edited by Richard Coico, 1994, hereby incorporated by reference, was followed. Briefly, test compounds were added to appropriate wells on 96-well tissue culture plates (Corning Glass Works, Corning, N.Y.) in 20 µl of supplemented RPMI 1640. Human peripheral blood mononuclear cells were added to each well in 100 μl volumes (final cell concentration equal to 50,000 cells per well). After 15 minutes, 100 μl of 5 μg/ml concanavalin-A (Sigma Chemical Co., St. Louis, Mo.) in supplemented RPMI 1640 was added to a final concentration of 2.5 μg/ml. Plates were incubated for 3 days at 37° C. with 5% CO2. On day 3, plates were pulsed with 0.5 μCi/well tritiated thymidine (New England Nuclear, Boston, Mass.). After 6 hours, plates were harvested on a Tomatec 96-well havester (Orange, Conn.). Glass filter mats were counted on a Matrix 9600 direct beta counter (Packard, Meriden, Conn.).

[1] = Homo sapiens, PBMC, concentration 10 μm (in parentheses in the cell)
[2] = concentration 1 μm (in parentheses in the cell)
[3] = Homo sapiens, PBMC, concentration 1 μm (in parentheses in the cell)
[4] = concentration 100 μm (in parentheses in the cell)
[5] = Homo sapiens, PBMC, concentration 100 μm (in parentheses in the cell)

## N#Cc1cccc(/C=C\c2ccc(-n3nc(C(F)(F)F)cc3C(F)(F)F)cc2)c1 [Example 139, (Z)-3-[2-[4-[3,5-bis(trifluoromethyl)-1H-pyrazol-1-yl]phenyl]ethenyl]benzonitrile]
[1]
  inhibition at 10 µM: 5%

## Nc1cnccc1C(=O)Nc1ccc(-n2nc(C(F)(F)F)cc2C(F)(F)F)cc1 [Example 290, 3-amino-N-(4-(3,5-bis(trifluoromethyl)-1H-pyrazol-1-yl)phenyl)isonicotinamide]
Homo sapiens, PBMC
  IC50: 373 nM

## O=C(Nc1ccc(-n2nc(-c3nccs3)cc2Cl)cc1)c1ccncc1F [Example 347, N-(4-(5-chloro-3-(1,3-thiazol-2-yl)-1H-pyrazol-1-yl)phenyl)-3-fluoroisonicotinamide]
Homo sapiens, PBMC
  IC50: 288 nM

## O=C(CCCC[C@@H]1SC[C@@H]2NC(=O)N[C@@H]21)Nc1ccc(-n2nc(C(F)(F)F)cc2C(F)(F)F)cc1 [Example 23, 3a(S)-(3aα,4β,6aα)-N-[4-[3,5-bis(trifluoromethyl)-1H-pyrazol-1-yl]phenyl]hexahydro-2-oxo-1H-thieno[3,4-d]limidazole-4-pentanamide]
[2]
  % Inhibition of proliferation (at concentrations of 1,10, or 100 μm): 4(1) %

## COc1cc(SC)ccc1C(=O)Nc1ccc(-n2nc(C(F)(F)F)cc2C(F)(F)F)cc1 [Example 179, N-[4-[3,5-bis(trifluoromethyl)-1H-pyrazol-1-yl]phenyl]-2-methoxy-4-(methythio)benzamide]
  IC50: 8870 nM
Concentration 10 μm (in parentheses in the cell)
  % Inhibition of proliferation (at concentrations of 1,10, or 100 μm): 47(10) %

## N#Cc1cccc(NCc2ccc(-n3nc(C(F)(F)F)cc3C(F)(F)F)cc2)c1 [Example 128, 3-[[[4-[3,5-bis(trifluoromethyl)-1H-pyrazol-1-yl]phenyl]methyl]amino]benzonitrile]
[3]
  inhibition at 1 µM: 25%

## N#Cc1cc(-c2ccccn2)nn1-c1ccc(NC(=O)c2ccncc2F)cc1 [Example 330, N-(4-(5-cyano-3-(2-pyridinyl)-1H-pyrazol-1-yl)phenyl)-3-fluoroisonicotinamide]
Homo sapiens, PBMC
  IC50: 169 nM

## O=C(Nc1ccc(-n2nc(C(F)(F)F)cc2C(F)(F)F)cc1)C1CCCC1 [Example 123, N-[4-[3,5-bis(trifluoromethyl)-1H-pyrazol-1-yl]phenyl]cyclopentanecarboxmide]
  IC50: 256 nM
[4]
  % Inhibition of proliferation (at concentrations of 1,10, or 100 μm): 99(100) %

## CC1CCC(C(=O)Nc2ccc(-n3nc(C(F)(F)F)cc3C(F)(F)F)cc2)CC1 (stereo not shown) [Example 54, N-[4-[3,5-bis(trifluoromethyl)-1H-pyrazol-1-yl]phenyl]-4-methylcyclohexanecarboxamide]
[3]
  inhibition at 1 µM: 12%

## N#Cc1cc(-c2nccs2)nn1-c1ccc(NC(=O)c2ccncc2F)cc1 [Example 338, N-(4-(5-cyano-3-(1,3-thiazol-2-yl)-1H-pyrazol-1-yl)phenyl)-3-fluoroisonicotinamide]
Homo sapiens, PBMC
  IC50: 164 nM

## O=C(Nc1ccc(-n2nc(C(F)(F)F)cc2C(F)(F)F)cc1)c1cccc(Br)c1 [Example 144, N-[4-[3,5-bis(trifluoromethyl)-1H-pyrazol-1-yl]phenyl]-3-bromobenzamide]
[5]
  inhibition at 100 µM: 100%
Homo sapiens, PBMC
  IC50: 240 nM

## O=C(Nc1ccc(-n2nc(C(F)(F)F)cc2OC(F)F)cc1)c1ccncc1 [Example 322, N-(4-(5-(difluoromethoxy)-3-(trifluoromethyl)-1H-pyrazol-1-yl)phenyl)isonicotinamide]
Homo sapiens, PBMC
  IC50: 238 nM

## O=C(Nc1ccc(-n2nc(C(F)(F)F)cc2C(F)(F)F)cc1)c1c(F)c(F)c(Br)c(F)c1F [Example 236, N-[4-[3,5-bis(trifluoromethyl)-1H-pyrazol-1-yl]phenyl]-4-bromo-2,3,5,6-tetrafluorobenzamide]
[1]
  inhibition at 10 µM: 100%
Homo sapiens, PBMC
  IC50: 180 nM

## CCCC(=O)Nc1ccc(-n2nc(C(F)(F)F)cc2C(F)(F)F)cc1 [Example 175, N-[4-[3,5-Bis(trifluoromethyl)-1H-pyrazol-1-yl]phenyl]butanamide]
[5]
  inhibition at 100 µM: 100%
Homo sapiens, PBMC
  IC50: 562 nM

## O=C(Nc1ccc(-n2nc(C(F)(F)F)cc2C(F)(F)F)cc1)c1cccc([N+](=O)[O-])c1Br [Example 205, N-[4-[3,5-bis(trifluoromethyl)-1H-pyrazol-1-yl]phenyl]-2-bromo-3-nitrobenzamide]
[1]
  inhibition at 10 µM: 100%
Homo sapiens, PBMC
  IC50: 196 nM

## Fc1ccc(NCc2ccc(-n3nc(C(F)(F)F)cc3C(F)(F)F)cc2)c(F)c1 [Example 108, 4-[3,5-bis(trifluoromethyl)-1H-pyrazol-1-yl]-N-(2,4-difluorophenyl)benzenemethanamine]
[3]
  inhibition at 1 µM: 18%

## COc1ccc(C(=O)Nc2ccc(-n3nc(C(F)(F)F)cc3C(F)(F)F)cc2)cc1OC [Example 98, N-[4-[3,5-bis(trifluoromethyl)-1H-pyrazol-1-yl]phenyl]-3-4-dimethoxybenzamide]
  IC50: 4920 nM
[4]
  % Inhibition of proliferation (at concentrations of 1,10, or 100 μm): 94(100) %

## Cn1ccc(-c2cc(C(F)(F)F)nn2-c2ccc(NC(=O)c3ccncc3F)cc2)c1 [Example 344, 3-fluoro-N-(4-(5-(1-methyl-1H-pyrrol-3-yl)-3-(trifluoromethyl)-1H-pyrazol-1-yl)phenyl)isonicotinamide]
Homo sapiens, PBMC
  IC50: 251 nM

## N#Cc1cc(C(F)(F)F)nn1-c1ccc(NC(=O)c2cc(F)cc(F)c2F)cc1 [Example 307, N-(4-(5-cyano-3-(trifluoromethyl)-1H-pyrazol-1-yl)phenyl)-2,3,5-trifluorobenzamide]
Homo sapiens, PBMC
  IC50: 79 nM

## O=C(CCCNC(=O)OCc1ccccc1)Nc1ccc(-n2nc(C(F)(F)F)cc2C(F)(F)F)cc1 [Example 158]
[2]
  % Inhibition of proliferation (at concentrations of 1,10, or 100 μm): 30(1) %

## COc1cc(C(F)(F)F)nn1-c1ccc(NC(=O)c2ccncc2)cc1 [Example 312, N-(4-(5-methoxy-3-(trifluoromethyl)-1H-pyrazol-1-yl)phenyl)isonicotinamide]
Homo sapiens, PBMC
  IC50: 298 nM

## Cn1ccc(-c2cc(OC(F)F)n(-c3ccc(NC(=O)c4ccncc4F)cc3)n2)c1 [Example 358, N-(4-(5-(difluoromethoxy)-3-(1-methyl-1H-pyrrol-3-yl)-1H-pyrazol-1-yl)phenyl)-3-fluoroisonicotinamide]
Homo sapiens, PBMC
  IC50: 203 nM

## Cc1cc(Br)ccc1NC(=O)Nc1ccc(-n2nc(C(F)(F)F)cc2C(F)(F)F)cc1 [Example 77, N-[4-[3,5-bis(trifluoromethyl)-1H-pyrazol-1-yl]phenyl]-N′-(4-bromo-2-methylphenyl)urea]
[1]
  inhibition at 10 µM: 93%
Homo sapiens, PBMC
  IC50: 655 nM

## O=C(Nc1ccc(-n2nc(C(F)(F)F)cc2C(F)(F)F)cc1)c1cnccn1 [Example 172, N-[4-[3,5-Bis(trifluoromethyl)-1H-pyrazol-1-yl]phenyl]pyazinecarboxamide]
[2]
  % Inhibition of proliferation (at concentrations of 1,10, or 100 μm): 48(1) %

## NCc1ccc(C(=O)Nc2ccc(-n3nc(C(F)(F)F)cc3C(F)(F)F)cc2)c(Cl)c1 [Example 294, 4-(aminomethyl)-N-(4-(3,5-bis(trifluoromethyl)-1H-pyrazol-1-yl)phenyl)-2-chlorobenzamide]
Homo sapiens, PBMC
  IC50: 299 nM

## O=C(Nc1ccc(-n2nc(C(F)(F)F)cc2C(F)(F)F)cc1)c1ccc(Br)cc1Cl [Example 217, N-[4-[3,5-bis(trifluoromethyl)-1H-pyrazol-1-yl]phenyl]-4-bromo-2-chlorobenzamide]
[1]
  inhibition at 10 µM: 100%
Homo sapiens, PBMC
  IC50: 218 nM

## N#Cc1cc(C(F)(F)F)nn1-c1ccc(NC(=O)c2ccccc2F)cc1 [Example 300, N-{4-[5-cyano-3-(trifluoromethyl)-1H-pyrazol-1-yl]phenyl}-2-fluorobenzamide]
Homo sapiens, PBMC
  IC50: 79 nM

## Cc1nc(C)c(-c2cc(C(F)(F)F)n(-c3ccc(NC(=O)c4ccncc4F)cc3)n2)s1 [Example 343, N-(4-(3-(2,4-dimethyl-1,3-thiazol-5-yl)-5-(trifluoromethyl)-1H-pyrazol-1-yl)phenyl)-3-fluoroisonicotinamide]
Homo sapiens, PBMC
  IC50: 250 nM

From patent US20010044445A1, “AZOLE INHIBITORS OF CYTOKINE PRODUCTION” (priority 1999, published 2001)
